Measured values reported in patent US10030016B2 (Sunesis Pharmaceuticals, Inc., priority 2009, dated 2018).
Counter-ions that a name gives are not always drawn. Like-named read-outs stand apart in the source and are kept apart here.

How the values were obtained:
PDK1 = PDK1 (Homo sapiens (Human), UniProt O15530); experiment: PDK1 kinase assay (coupled PDK1/AKT/FAM-crosstide assay, IMAP fluorescence polarization); type: biochemical
Method in brief: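 GST-tagged human PDK1 (aa 51-359, 0.75 nM) from insect cells activated unphosphorylated GST-AKT2 (aa 140-467–PIFtide fusion, 10 nM), which phosphorylated 100 nM FAM-crosstide; 40 μM ATP, pH 7.2 Tris/MgCl2, 30 min at 25° C. IMAP fluorescence polarization read-out; ΔmP versus compound concentration fitted with a 4-parameter curve.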

[1] = test system: phospho-akt (Thr308) in PC-3 cells; experiment: Inhibition of phospho-akt (Thr308) in PC-3 cells, MSD phospho-akt 308 ELISA kit; type: cell-based; conditions: 2 hours, no serum, read-out: EC50
Method in brief: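 PC-3 cells (15,000/well, overnight in 10% FBS medium) treated 2 h with three-fold diluted compounds in serum-free medium; DMSO high and 5 μM wortmannin low controls. Lysates captured on BSA-blocked MSD plates overnight at 4 °C, then 1 h antibody detection at RT; phospho-Akt Thr308 read by MSD electrochemiluminescence.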

[2] = inhibition of phospo-PDK1 in vitro
[3] = Homo sapiens, PC-3, 2 h, inhibition of P308 Akt in PC-3 cells, MSD
[4] = Homo sapiens, inhibition of P308 Akt in PC-3 cells using MSD
[5] = Homo sapiens, inhibition of P308 Akt in PC-3 cells, MSD

PDK1, sequence (O15530 51-359): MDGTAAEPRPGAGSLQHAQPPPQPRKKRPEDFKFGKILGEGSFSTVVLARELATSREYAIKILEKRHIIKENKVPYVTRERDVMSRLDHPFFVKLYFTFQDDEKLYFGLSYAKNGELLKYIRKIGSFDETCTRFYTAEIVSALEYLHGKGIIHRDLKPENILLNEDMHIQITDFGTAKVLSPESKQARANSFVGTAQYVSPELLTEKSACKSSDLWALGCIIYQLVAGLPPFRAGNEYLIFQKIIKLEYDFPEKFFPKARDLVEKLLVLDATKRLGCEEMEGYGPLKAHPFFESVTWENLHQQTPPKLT

Row | Compound | IC50 (PDK1; inhibition of PDK1 in vitro) [nM] | IC50 (PDK1; [2]) [nM] | EC50 [1, 4] [nM] | EC50 [1, 5] [nM] | further results
1 | C[C@H](NC(=O)c1cc(C#N)cnc1NCc1ccc(-c2cnc(N)c(C(=O)NCC(O)CO)n2)cc1)c1ccc(F)cc1 (stereo partly drawn) [Example 347, 3-amino-6-(4-((5-cyano-3-((S)-1-(4-fluorophenyl)ethylcarbamoyl)pyridin-2-ylamino)methyl)phenyl)-N-(2,3-dihydroxypropyl) pyrazine-2-carboxamide] | < 100 |  |  |  | EC50 ([1]; inhibition of P308 Akt in PC-3 cells using MSD): < 1000 nM
2 | Nc1ncnc2ccc(-c3ccc(CNc4ncc(NC(=O)C5CCCC5)cc4C(=O)NCc4ccc(F)c(F)c4)s3)cc12 [Example 8.5.5, 2-({[5-(4-aminoquinazolin-6-yl)thiophen-2-yl]methyl}amino)-5-[(cyclopentylcarbonyl)amino]-N-(3,4-difluorobenzyl) pyridine-3-carboxamide] |  | 100 to 1000 |  |  | EC50 [1, 3]: 1000 to 10000 nM
3 | Nc1n[nH]c2ncc(-c3ccc(CNc4ncc(C(F)(F)F)cc4C(=O)NC4CCCC4)cc3)cc12 [Example 302, 2-(4-(3-amino-1H-pyrazolo [3,4-b]pyridin-5-yl)benzylamino)-N-cyclopentyl-5-(trifluoromethyl)nicotinamide] | < 100 |  | 1000 to 10000 |  | 
4 | CCS(=O)(=O)Nc1cnc(NCc2ccc(-c3ccc4ncnc(N)c4c3)s2)c(C(=O)NCc2ccc(F)c(F)c2)c1 [Example 8.6.2, 2-({[5-(4-aminoquinazolin-6-yl)thiophen-2-yl]methyl}amino)-N-(3,4-difluorobenzyl)-5-[(ethylsulfonyl)amino] pyridine-3-carboxamide] |  | 100 to 1000 |  |  | EC50 [1, 3]: < 1000 nM
5 | C[C@H](NC(=O)c1cc(C#N)cnc1NCc1ccc(-c2cnc3[nH]nc(CN)c3c2)cc1)c1ccc(F)cc1 [Example 152, (S)-2-(4-(3-(aminomethyl)-1H-pyrazolo[3,4-b]pyridin-5-yl)benzyl-amino)-5-cyano-N-(1-(4-fluorophenyl)ethyl)nicotinamide] | < 100 |  | 1000 to 10000 |  | 
6 | C[C@H](NC(=O)c1cc(S(N)(=O)=O)cnc1NCc1ccc(-c2ccc3ncnc(N)c3c2)s1)c1ccc(F)c(F)c1 [Example 8.7.3, 2-({[5-(4-aminoquinazolin-6-yl)thiophen-2-yl]methyl}amino)-N-[(1S)-1-(3,4-difluorophenyl)ethyl]-5-sulfamoylpyridine-3-carboxamide] |  | < 100 |  | 1000 to 10000 | 
7 | N#Cc1cnc(NCc2ccc(-c3cnc4[nH]nc(N)c4c3)cc2)c(C(=O)Nc2ccc(F)cc2)n1 [Example 29, 3-(4-(3-amino-1H-pyrazolo[3,4-b]pyridin-5-yl)benzylamino)-6-cyano-N-(4-fluorophenyl) pyrazine-2-carboxamide] |  | < 100 |  | < 1000 | 
8 | NCCNS(=O)(=O)c1cnc(NCc2ccc(-c3ccc4ncnc(N)c4c3)s2)c(C(=O)NCc2ccc(F)c(F)c2)c1 [Example 8.6.13, 5-(N-(2-aminoethyl)sulfamoyl)-2-(((5-(4-aminoquinazolin-6-yl)thiophen-2-yl)methyl)amino)-N-(3,4-difluorobenzyl) nicotinamide] |  | 1000 to 5000 |  | > 10000 | 
9 | C[C@H](NC(=O)c1cc(C#N)cnc1NCc1ccc(-c2ccc(N)nc2)nc1)c1ccc(F)cc1 [Example 68, 2-[(6′-Amino-[2,3′]bipyridinyl-5-ylmethyl)-amino]-5-cyano-N-[(S)-1-(4-fluoro-phenyl)-ethyl]-nicotinamide] | < 100 |  | 1000 to 10000 |  | 
10 | N#Cc1cnc(NCc2ccc(-c3c[nH]c4ncnc(N)c34)cc2)c(-c2ncco2)c1 [Example 43, 6-(4-(4-amino-7H-pyrrolo[2,3-d]pyrimidin-5-yl)benzylamino)-5-(oxazol-2-yl)nicotinonitrile] | 1000 to 5000 |  | 1000 to 10000 |  | 
11 | CC(C)(N)COc1nc(-c2ccc(CNc3ncc(C(F)(F)F)cc3C(=O)Nc3ccc(F)cc3)cc2)cnc1N [Example 200, 2-{4-[5-Amino-6-(2-amino-2-methyl-propoxy)-pyrazin-2-yl]-benzylamino}-N-(4-fluoro-phenyl)-5-trifluoromethyl-nicotinamide] | < 100 |  | 1000 to 10000 |  | 
12 | N#Cc1cnc(NCc2ccc(-c3cnc4[nH]ncc4c3)cc2)c(C(=O)NCc2ccc(F)cc2)c1 [Example 397, 5-Cyano-N-(4-fluoro-benzyl)-2-[4-(1H-pyrazolo[3,4-b]pyridin-5-yl)-benzylamino]-nicotinamide] | < 100 |  | < 1000 |  | 
13 | C[C@H](NC(=O)c1cccnc1NCc1ccc(-c2cn3ccnc3cn2)s1)c1ccc(F)cc1 [Example 2.8, (S)-N-(1-(4-fluorophenyl)ethyl)-2-(((5-(imidazo[1,2-a]pyrazin-6-yl)thiophen-2-yl)methyl)amino)nicotinamide] |  | 1000 to 5000 |  | > 10000 | 
14 | Nc1ncnc2ccc(-c3csc(CNc4ncccc4C(=O)NCc4ccc(F)c(F)c4)n3)cc12 [Ex. 6.7, 2-({[4-(4-aminoquinazolin-6-yl)-1,3-thiazol-2-yl]methyl}amino)-N-(3,4-difluoro-benzyl) pyridine-3-carboxamide] |  | < 100 |  | > 10000 | 
15 | Nc1ncnc2ccc(-c3ccc(CNc4ncc(C(F)(F)F)nc4C(=O)NCc4ccc(F)c(F)c4)s3)cc12 [Example 10.10, 3-(((5-(4-aminoquinazolin-6-yl)thiophen-2-yl)methyl)amino)-N-(3,4-difluorobenzyl)-6-(trifluoromethyl)pyrazine-2-carboxamide] |  | < 100 |  | > 10000 | 
16 | Nc1cnc(-c2ccc(CNc3ncc(C(F)(F)F)cc3C(=O)Nc3ccc(F)cc3)cn2)cn1 [Example 325] | 100 to 1000 |  |  |  | EC50 ([1]; Homo sapiens, PC-3, 2 h, inhibition of P308 Akt in PC-3 cells using MSD): 1000 to 10000 nM
17 | Nc1n[nH]c2ncc(-c3ccc(CNc4ncc(C(F)(F)F)cc4C(=O)Nc4ccc(C(F)(F)F)nc4)cc3)cc12 [Example 276, 2-(4-(3-amino-1H-pyrazolo [3,4-b]pyridin-5-yl)benzylamino)-5-(trifluoromethyl)-N-(6-(trifluoromethyl)pyridin-3-yl)nicotinamide] | < 100 |  | 1000 to 10000 |  | 
18 | CCOc1cnc(NCc2ccc(-c3ccc4ncnc(N)c4c3)s2)c(C(=O)NCc2ccc(F)c(F)c2)c1 [Example 8.1.3, 2-({[5-(4-aminoquinazolin-6-yl)thiophen-2-yl]methyl}amino)-N-(3,4-difluorobenzyl)-5-ethoxypyridine-3-carboxamide] |  | > 5000 |  | > 10000 | 
19 | C[C@H](NC(=O)c1cc(C#N)cnc1NC/C=C/c1ccc2c(c1)NC(=O)C2)c1ccc(F)cc1 [Example 15.3, (S,E)-5-cyano-N-(1-(4-fluorophenyl)ethyl)-2-(3-(2-oxoindolin-6-yl)allylamino)nicotinamide] |  | > 5000 |  | > 10000 | 
20 | O=C(NCc1ccc(F)c(F)c1)c1cccnc1NCc1ccc(-c2cnc3[nH]ncc3c2)nc1 [Example 327] | < 100 |  | 1000 to 10000 |  | 
21 | C[C@H](NC(=O)c1nc(C#N)cnc1N[C@@H](CO)c1ccc(-c2cnc3[nH]nc(N)c3c2)cc1)c1ccc(F)c(F)c1 [Example 351, 3-((R)-1-(4-(3-amino-1H-pyrazolo[3,4-b]pyridin-5-yl)phenyl)-2-hydroxy-ethylamino)-6-cyano-N-((S)-1-(3,4-difluorophenyl)ethyl)pyrazine-2-carboxamide] | 1000 to 5000 |  | > 10000 |  | 
22 | N#Cc1cnc(NCc2ccc(-c3ccc(N)nc3)cc2)c(C(=O)NCc2ccc(F)c(F)c2)n1 [Example 372, 3-(4-(6-aminopyridin-3-yl)benzylamino)-6-cyano-N-(3,4-difluorobenzyl)pyrazine-2-carboxamide] | < 100 |  | 1000 to 10000 |  | 
23 | C[C@@H](Nc1ncc(C(F)(F)F)nc1C(=O)Nc1ccc(F)cc1)c1ccc(-c2cnc3[nH]nc(N)c3c2)cc1 [Example 421, (R)-3-(1-(4-(3-amino-1H-pyrazolo[3,4-b]pyridin-5-yl)phenyl)ethylamino)-N-(4-fluorophenyl)-6-(trifluoromethyl)pyrazine-2-carboxamide] | < 100 |  | < 1000 |  | 
24 | O=C(NCc1ccc(F)c(F)c1)c1cccnc1NCc1ccc(-c2cnc3[nH]ccc3c2)nc1 [Example 328] | < 100 |  | > 10000 |  | 
25 | O=C(NCc1ccc(F)c(F)c1)c1cccnc1NCc1ccc(-c2ccc3ncnc(N4CCOCC4)c3c2)s1 [Example 4.11, N-(3,4-difluorobenzyl)-2-(((5-(4-morpholinoquinazolin-6-yl)thiophen-2-yl)methyl)amino)nicotinamide] |  | < 100 |  | > 10000 | 
26 | Nc1ccc(-c2ccc(CNc3ncc(C(F)(F)F)cc3C(=O)NCc3ccc(F)c(F)c3)cc2)cn1 [Example 370, 2-(4-(6-aminopyridin-3-yl)benzylamino)-N-(3,4-difluorobenzyl)-5-(trifluoro-methyl)nicotinamide] | < 100 |  | 1000 to 10000 |  | 
27 | CCC(C)NS(=O)(=O)c1cnc(NCc2ccc(-c3ccc4ncnc(N)c4c3)s2)c(C(=O)NC)c1 (centres unmarked) [Example 8.6.17, 2-(((5-(4-aminoquinazolin-6-yl)thiophen-2-yl)methyl)amino)-5-(N-sec-butylsulfamoyl)-N-methylnicotinamide] |  | > 5000 |  | 1000 to 10000 | 
28 | Nc1ncnc2ccc(-c3ccc(CNc4ncccc4C(=O)NCc4cccc(F)c4F)s3)cc12 [Example 3.10, 2-({[5-(4-aminoquinazolin-6-yl)thiophen-2-yl]methyl}amino)-N-(2,3-difluorobenzyl)pyridine-3-carboxamide (TFA salt)] |  | 100 to 1000 |  | 1000 to 10000 | 
